Measurements from PMC4887910, “A synthetic kisspeptin analog that triggers ovulation and advances puberty” (Scientific Reports, 2016).
“Also recorded” adds a separate entry of the source. Where two headings read alike, the source gives them in different places. Values belong to the molecule of their own block, whether it stands above or below them. Starred links: 1 amine or outer side, 2 acyl side, 3 side chain; linkers in the order of their positions; H or OH if unused. Non-standard residues stand in square brackets, D forms with d. Residues, ends and D or L forms follow the SMILES beside them. No end group written: not given here. *: point of attachment. Glyψ(1,4-Tz)Leu = CC(C)C[C@@H](C(=O)[*:2])n1cc(CN[*:1])nn1; γGlu = O=C(O)[C@H](CCC(=O)[*:2])N[*:1]; Arg(Me) = CNC(=N)NCCC[C@H](N)C(=O)O; Palmitoyl = CCCCCCCCCCCCCCCC(=O)*

Tests used:
[1] = biological target: T1, hKiSS1R (Homo sapiens, UniProt Q969F8); assay: intracellular Ca2+ mobilization assay (Fluo4 NW) in KiSS1R-transfected HEK293A cells; type: cell-based; details: for EC50: SEM
T1 construct: expressed in transfected cells; host or cells: HEK293A
T1 sequence (Q969F8 whole entry): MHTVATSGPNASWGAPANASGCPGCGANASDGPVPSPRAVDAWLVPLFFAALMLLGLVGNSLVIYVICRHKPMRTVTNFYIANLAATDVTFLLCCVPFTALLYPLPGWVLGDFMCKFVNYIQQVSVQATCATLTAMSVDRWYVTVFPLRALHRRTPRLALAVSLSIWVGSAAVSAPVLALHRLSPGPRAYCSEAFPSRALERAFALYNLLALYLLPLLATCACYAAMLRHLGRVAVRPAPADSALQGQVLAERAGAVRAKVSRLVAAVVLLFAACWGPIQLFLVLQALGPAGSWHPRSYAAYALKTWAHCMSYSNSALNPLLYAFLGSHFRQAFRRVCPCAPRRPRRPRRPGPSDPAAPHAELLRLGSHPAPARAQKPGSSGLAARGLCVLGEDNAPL
Text: Figure 1 Chemical structures and half maximal effective concentration (mean ± SEM, N = 3) of kisspeptin 10 and analogs C2–C7 as measured in a calcium mobilization assay in KiSS1R-transfected HEK293 cell line. Ac: acetyl; Palm-γ-Glu: N-palmitoylated-γ-glutamate, Tz: Triazole; Me: Methyl. TEXT PRINTED IN THE PICTURE: Kp10 1: EC50 (nM): 2.6 ± 2.2 | 2: EC50 (nM): 0.07 ± 0.06 | 3: EC50 (nM): 1.6 ± 0.2 | 4: EC50 (nM): 216 ± 110 | 5: EC50 (nM): 0.22 ± 0.33 | 6: EC50 (nM): 0.33 ± 0.24 | 7: EC50 (nM): 0.04 ± 0.02
Receptor activation was monitored using Fluo4 NW Ca^2+ assay kit in HEK293A cells transfected with the hKiSS1R as previously described[11] (kind gift of professor N. de Roux, INSERM U690, Hôpital Robert Debré, Paris, France). Considering the type of analysis performed, assessment of second messenger activation of a heterologous expressed receptor, the use of potentially misidentified cells has no impact on the result. Basal fluorescence was measured with a plate reader (PolarStar Optima, BMG Labtech). Immediately after the basal reading, the test compound was added at different concentrations and the intracellular Ca^2+ dynamic monitored. To generate concentration activity curves, the mean basal value was subtracted from the value obtained after stimulation. The area under the curve (AUC) was calculated and plotted against concentrations. Concentration activity data points were fitted to sigmoidal curves generated by GraphPad Prism 5 and EC50 automatically calculated.

[2] = tested on: ewes; assay: LH plasma concentration in ewes during artificial luteal phase (under flugestone acetate), intramuscular injection; type: in vivo, ewe (Ile de France); details: 15 nmol/ewe im, breeding season, ewes under FA treatment, N = 6
Description: (§1) To induce an artificial luteal phase intact cyclic (October–December) or anestrus acyclic (March–June) ewes were implanted with vaginal sponge containing FA (Chronogest, Intervet), a progesterone analog, for 14 days. To compare the activity of Kp, C3, C5 and C6 injection of test drug was performed during the treatment with FA. For the experiments of synchronization and induction of ovulation 24 hours before drug injection the vaginal sponge was removed and the same day a catheter (ID 1.0, L 52 mm, Intraflon 2, Vygon, France) was inserted in the jugular vein. On the day of experiment the test compound was injected intramuscularly and blood samples (2 mL) were taken at various time intervals post-injection: every10 minutes for the first hour, every 20 minutes from 2 to 6 hours, every 60 minutes from 6 to 10 hours and every 120 minutes from 10 hours to the end of the experiment). Data are expressed as means ± SEM (N = 6–12 per group, for details on group size see figure legends).
Plasma LH concentrations in ewe were measured using previously described radioimmunoassays. The assay standard was 1055-CY-LH (equivalent to 2.2 NIH-LH-S1). Intra-assay coefficient of variation averaged 9% and assay sensitivity was 0.2 ± 0.05 ng/mL. Plasma FSH levels were measured using the reagents supplied by Tucker Endocrine Research Institute (Atlanta, Georgia, USA). […]

[3] = tested on: ewes; assay: LH surge / ovulation induction in ewes injected 24 h after flugestone acetate withdrawal (LH, FSH, progesterone); type: in vivo, ewe (Ile de France); details: 15 nmol/ewe im
Description: as §1
Plasma LH concentrations in ewe were measured using previously described radioimmunoassays. […] Plasma FSH levels were measured using the reagents supplied by Tucker Endocrine Research Institute (Atlanta, Georgia, USA). […]
Progesterone was measured by an ELISA assay on 96-well plate (Immuno Nunc Maxisorp C96) coated with goat anti-mouse IgG (Uptima UP462140, Interchim) overnight at 4 °C. […]

[4] = tested on: KiSS1R KO mice; assay: circulating LH concentration in KiSS1R KO mice; type: in vivo, mouse
Description: Adult male and female KiSS1R KO mice[41] were primed by 5 ip injections of 40 ng/100 μL GnRH at 30 minute intervals and an equivalent volume of saline was injected to wild type mice. This protocol allows the pituitary gland to become more responsive to GnRH in this mouse line as previously reported. Blood samples (4 μL) were collected from the tail tip as previously described, before the first, third and fifth injection, and 30, 105 and 125 minutes after the last injection. C6 was injected immediately after the last blood sampling (0.3 nmoles/200 μL, a dose established in a preliminary experiment) and blood samples taken 20, 40, 60, 90, 120, 180, 300 minutes following injection. After 300 minutes a further injection of GnRH (40 ng/100 μL) was performed in KiSS1R KO mice, and a final blood sample was taken 30 minutes later to confirm the functionality of the HPG axis. Whole blood samples were collected in 150 μL of 0.1 M PBS-0.05% Tween20, mixed and moved to dry ice at the end of each sampling round. Experiments were conducted during the first 8 hours of the light phase to avoid any endogenous LH surges associated with the preovulatory stage of the female reproductive cycle. Data are expressed as means ± SEM (N = 4–7 per group, for details on group size see figure legends).
A sandwich ELISA, adapted from Steyn et al.[42], was used to measure LH concentration in mice. Monoclonal bovine LHβ 518 B7 (1:1,000 dilution) was used as the capture antibody (obtained from Lillian Sibley at University of California Davis), and the standard was NIDDK mouse LH reference preparation from AF Parlow (AFP5306A mouse RIA kit). The assay sensitivity was 0.2 ng/mL and the mean intra-assay coefficient of variation averaged 11%.

[5] = KiSS1R-transfected HEK293 cell line, Fluo4 NW, AUC fitted, mean ± SEM, N = 3, read-out: EC50, calcium mobilization
[6] = 40 ng GnRH 300 min after C6, sample 30 min later
[7] = 5 ip injections of 40 ng GnRH at 30 min intervals, 15 minutes post injection

EC50 [1, 5]: 0.22 ± 0.33 nM
Molecule: CCCCCCCCCCCCCCCC(=O)N[C@@H](CCC(=O)N[C@@H](Cc1ccc(O)cc1)C(=O)N[C@@H](CC(N)=O)C(=O)N[C@@H](Cc1c[nH]c2ccccc12)C(=O)N[C@@H](CC(N)=O)C(=O)N[C@@H](CO)C(=O)N[C@@H](Cc1ccccc1)C(=O)NCc1cn([C@@H](CC(C)C)C(=O)N[C@@H](CCCNC(=N)N)C(=O)N[C@@H](Cc2ccc(O)cc2)C(N)=O)nn1)C(=O)O [C5] ({Palmitoyl-γGlu}-YNWNSF[Glyψ(1,4-Tz)Leu]RY-NH2)

EC50 [1, 5]: 0.04 ± 0.02 nM
Molecule: CNC(=N)NCCC[C@H](NC(=O)[C@H](CC(C)C)n1cc(CNC(=O)[C@H](Cc2ccccc2)NC(=O)[C@H](CO)NC(=O)[C@H](CC(N)=O)NC(=O)[C@H](Cc2c[nH]c3ccccc23)NC(=O)[C@H](CC(N)=O)NC(=O)[C@H](Cc2ccc(O)cc2)NC(C)=O)nn1)C(=O)N[C@@H](Cc1ccc(O)cc1)C(N)=O [C7] (Ac-YNWNSF[Glyψ(1,4-Tz)Leu][Arg(Me)]Y-NH2)

Further lines, the molecule ahead of its results:

Molecule: CCCCCCCCCCCCCCCC(=O)N[C@@H](CCC(=O)N[C@@H](Cc1ccc(O)cc1)C(=O)N[C@@H](CC(N)=O)C(=O)N[C@@H](Cc1c[nH]c2ccccc12)C(=O)N[C@@H](CC(N)=O)C(=O)N[C@@H](CO)C(=O)N[C@@H](Cc1ccccc1)C(=O)NCc1cn([C@@H](CC(C)C)C(=O)N[C@@H](CCCNC(=N)NC)C(=O)N[C@@H](Cc2ccc(O)cc2)C(N)=O)nn1)C(=O)O [C6] ({Palmitoyl-γGlu}-YNWNSF[Glyψ(1,4-Tz)Leu][Arg(Me)]Y-NH2)
enhancement in EC50 compared to C3 ([1]; C6 versus first generation analog C3): ~ 5 fold
EC50 [1]: 0.33 ± 0.24 nM

Molecule: YNWNSFGLRY-NH2 [Kp10]
EC50 [1, 5]: 2.6 ± 2.2 nM
effect on LH plasma concentration [2]: negligible effect; also recorded: no effect on LH basal level
effect on LH plasma concentration, non-breeding season ([3]; 24 h after ending FA treatment, N = 6): no increase
progesterone level ([3]; non-breeding season, 1 ng mL^−1 threshold = ovulation hallmark): < 1 ng/mL

Molecule: gonadotropin releasing hormone (QHWSYGLRPG; ends and bridges not checked; UniProt P13562 22-31, looked up) [GnRH, hormone injected ip to prime KiSS1R KO mice and check pituitary function]
LH after further GnRH injection at end of experiment, KO females [4, 6]: 4.8 ± 1.9 ng/mL
LH after further GnRH injection at end of experiment, KO males [4, 6]: 3.2 ± 0.4 ng/mL
LH after GnRH priming, KO females [4, 7]: 2.3 ± 0.8 ng/mL
LH after GnRH priming, KO males [4, 7]: 2.7 ± 0.6 ng/mL
fold increase of circulating LH after GnRH priming ([4]; KiSS1R KO mice, 15 minutes post injection): 3–6 fold
